Source: patent US5977133A, “Pyridone antibiotic with improved safety profile” (priority 1998, dated 1999)
≈ marks a conversion by molar mass, not a printed value. Entries after “also recorded” stand apart in the source; their conditions may differ. Where a name gives a salt, the structure may show the parent alone. Read-outs that look alike come from different tables or passages of the source.

How the values were obtained:
[1] = test system: C. freundii; assay: In vitro MIC, agar dilution; type: cell-based; conditions: Citrobacter freundii; for MIC: read-out: MIC Range
[2] = test system: B. fragilis; assay: In vitro MIC, agar dilution; type: cell-based; conditions: for MIC: read-out: MIC Range
[3] = test system: S. epidermidis (CiproR); assay: In vitro MIC, agar dilution; type: cell-based; conditions: Staphylococcus epidermidis; for MIC50: read-out: MIC50; for MIC: read-out: MIC Range
[4] = test system: Escherichia coli JUHL; assay: In vivo efficacy, mouse infection (ED50); conditions: for ED50: Escherichia coli, in Mus musculus, 168 h
[5] = test system: enterococci; assay: In vitro MIC, agar dilution (summary in text); type: cell-based
[6] = test system: staphylococci; assay: In vitro MIC, agar dilution (summary in text); type: cell-based
[7] = test system: bacteria; assay: In vitro antibacterial activity (overall statement); type: cell-based; conditions: overall statement
[8] = test system: staphylococcus aureus NTCC 10649; assay: In vivo efficacy, mouse infection (ED50); conditions: for ED50: Staphylococcus aureus, NTCC10649, in Mus musculus, 168 h
[9] = test system: anaerobes; type: cell-based, B. fragilis, C. difficile, C. perfringens; conditions: words
[10] = test system: gram positive and gram negative infections; assay: In vivo efficacy in mice (overall statement); set-up: species or system female CF-1 outbred mice; conditions: for in vivo efficacy in words: gram positive and gram negative infections
[11] = test system: ciprofloxacin resistant staphylococcal strains; assay: In vitro MIC, agar dilution (summary in text); type: cell-based; conditions: read-out: MIC90
[12] = test system: streptococci; assay: In vitro MIC, agar dilution (summary in text); type: cell-based
[13] = in vivo; conditions: mouse, ip
[14] = test system: Streptococcus pneumoniae 6303; assay: In vivo efficacy, mouse infection (ED50); conditions: for ED50: Streptococcus pneumoniae, 6303, in Mus musculus, 168 h
[15] = test system: enterobacteriaceae; assay: microbe, parasite or virus in culture; type: cell-based
[16] = Bacteroides fragilis, B. fragilis, 18 isolates, read-out: MIC50
[17] = S. epidermidis (CiproR), 11 isolates
[18] = S. epidermidis (CiproR), 11 isolates, read-out: MIC90
[19] = C. freundii, 20 isolates, read-out: MIC50

## C[C@@H]1CN(c2c(F)c(N)c3c(=O)c(C(=O)O)cn(C4CC4)c3c2F)C[C@H](C)N1 [Sparfloxacin, sparfloxacin]
[1]
  MIC50: 0.03 µg/mL (≈ 0.0765 µM)
  MIC90: 0.5 µg/mL (≈ 1.27 µM)
[1]; C. freundii, 20 isolates
  MIC: 0.015 to 1 µg/mL (≈ 0.0382 to 2.55 µM)
[2]; Bacteroides fragilis
  MIC: 0.5 to 2 µg/mL (≈ 1.27 to 5.1 µM)
[2]; [16]
  MIC50: 1 µg/mL (≈ 2.55 µM)
[2]; Bacteroides fragilis, B. fragilis, 18 isolates, read-out: MIC90
  MIC90: 2 µg/mL (≈ 5.1 µM)
[3]; [17]
  MIC50: 4 µg/mL (≈ 10.2 µM)
[3]; [18]
  MIC90: 8 µg/mL (≈ 20.4 µM)

## CN[C@@H]1CN(c2c(F)cn3c(=O)c(C(=O)O)cc(C4CC4)c3c2C)CC12CC2 [Example 1, 1-cyclopropyl-8-(7(S)-N-methylamino-5-azaspiro[2.4]heptyl)-7-fluoro-9-methyl-4-oxo-4H-guinolizine-3-carboxylic acid hydrochloride]
[4]; E. coli, words
  efficacy relative to ciprofloxacin: comparable
[4]; po
  ED50: 6.8 mg/kg
[4]; sc
  ED50: 1.4 mg/kg
[5]
  MIC90: 0.25 to 1 µg/mL
[5]; words
  in vitro activity relative to reference drugs: superior to ciprofloxacin, sparfloxacin, and trovafloxacin
[6]
  MIC90: 0.03 µg/mL
[6]; words
  in vitro activity relative to reference drugs: superior to ciprofloxacin, sparfloxacin, and trovafloxacin
[7]
  antibacterial activity in words: excellent, broad-spectrum antibacterial activity
[8]; S. aureus, words
  efficacy relative to ciprofloxacin: superior to ciprofloxacin
[8]; po
  ED50: 5 mg/kg
[8]; sc
  ED50: 1.5 mg/kg
[9]
  in vitro activity relative to reference drugs: significantly more active than ciprofloxacin, trovafloxacin, and sparfloxacin
[10]; hydrochloride
  in vivo efficacy in words: maintaining efficacy versus S. aureus. S. pneumoniae and E. coli
[10]; listed as example 1, hydrochloride
  in vivo efficacy in words: broad spectrum efficacy against both gram positive and gram negative infections
[10]; oral, all infections
  oral efficacy in words: Oral efficacy was also demonstrated against all infections
[11]
  MIC90: 0.5 µg/mL
[12]
  MIC90: 0.06 µg/mL
[12]; words
  in vitro activity relative to reference drugs: superior to ciprofloxacin, sparfloxacin, and trovafloxacin
mouse, in vivo
  weight loss in words: no weight loss was observed
Single intraperitoneal injection to mice, hydrochloride
  relative toxicity / safety in words: significantly less toxic than Example 2 or Example 5; also recorded: less morbidity and mortality than equivalent doses of Example 2 and Example 5
[1]
  MIC50: 0.03 µg/mL
  MIC90: 0.25 µg/mL
[1]; C. freundii, 20 isolates
  MIC: 0.015 to 0.25 µg/mL
[13]
  LD50 at 504 h: 232 mg/kg
[2]; B. fragilis, 18 isolates
  MIC90: 0.12 µg/mL
[2]; Bacteroides fragilis
  MIC: 0.06 to 0.12 µg/mL
[2]; [16]
  MIC50: 0.06 µg/mL
[2]; Bacteroides fragilis, B. fragilis, read-out: MIC90
  MIC90: 0.12 µg/mL
[14]; S. pneumoniae, words
  efficacy relative to ciprofloxacin: superior to ciprofloxacin
[14]; po
  ED50: 20 mg/kg
[14]; sc
  ED50: 12.5 mg/kg
[15]
  MIC90: 0.015 to 0.25 µg/mL
  in vitro activity relative to reference drugs: equivalent to ciprofloxacin and superior to trovafloxacin and sparfloxacin
[3]
  MIC90: 0.5 µg/mL
  MIC: 0.12 to 2 µg/mL
[3]; [17]
  MIC50: 0.25 µg/mL

## N[C@@H]1[C@H]2CN(c3nc4c(cc3F)c(=O)c(C(=O)O)cn4-c3ccc(F)cc3F)C[C@@H]12 [Trovafloxacin, trovafloxacin]
[1]
  MIC90: 0.5 µg/mL (≈ 1.2 µM)
[1]; [19]
  MIC50: 0.06 µg/mL (≈ 0.144 µM)
[1]; C. freundii, 20 isolates
  MIC: 0.003 to 1 µg/mL (≈ 0.00721 to 2.4 µM)
[2]; Bacteroides fragilis
  MIC90: 0.5 µg/mL (≈ 1.2 µM)
  MIC: 0.12 to 1 µg/mL (≈ 0.288 to 2.4 µM)
[2]; [16]
  MIC50: 0.25 µg/mL (≈ 0.6 µM)
[3]
  MIC: 1 to 16 µg/mL (≈ 2.4 to 38.4 µM)
[3]; [17]
  MIC50: 4 µg/mL (≈ 9.61 µM)
[3]; [18]
  MIC90: 16 µg/mL (≈ 38.4 µM)

## Cc1c(N2C[C@@H](N)C3(CC3)C2)c(F)cn2c(=O)c(C(=O)O)cc(C3CC3)c12 [Example 5, 1-cyclopropyl-8-(7(S)-amino-5-azaspiror2.41heptvl)-7-fluoro-9-methyl4-oxo-4H-quinolizine-3-carboxylic acid hydrochloride]
[4]; po
  ED50: 5 mg/kg
[4]; sc
  ED50: 0.6 mg/kg
[8]; po
  ED50: 2.3 mg/kg
[8]; sc
  ED50: 0.9 mg/kg
mouse, in vivo, ip, 100 mg/kg
  body weight loss: 18%
[1]
  MIC90: 0.12 µg/mL
[1]; [19]
  MIC50: 0.015 µg/mL
[1]; C. freundii, 20 isolates
  MIC: 0.008 to 0.12 µg/mL
[13]
  LD50 at 504 h: 105 mg/kg
[2]; Bacteroides fragilis
  MIC50: 0.03 µg/mL
  MIC90: 0.03 µg/mL
[2]; Bacteroides fragilis, B. fragilis, 18 isolates
  MIC: 0.015 to 0.06 µg/mL
[14]; po
  ED50: 4.2 mg/kg
[14]; sc
  ED50: 0.9 mg/kg
[3]
  MIC90: 0.25 µg/mL
  MIC: 0.12 to 1 µg/mL
[3]; [17]
  MIC50: 0.25 µg/mL

## NC1CCN(c2c(F)cc3c(=O)c(C(=O)O)cn(C4CC4)c3c2Cl)C1 (stereo not shown) [Clinafloxacin, clinafloxacin]
[1]
  MIC50: 0.03 µg/mL (≈ 0.082 µM)
  MIC90: 0.12 µg/mL (≈ 0.328 µM)
  MIC: 0.015 to 0.12 µg/mL (≈ 0.041 to 0.328 µM)
[2]; Bacteroides fragilis
  MIC90: 0.5 µg/mL (≈ 1.37 µM)
  MIC: 0.06 to 0.5 µg/mL (≈ 0.164 to 1.37 µM)
[2]; [16]
  MIC50: 0.25 µg/mL (≈ 0.683 µM)
[3]; [17]
  MIC50: 0.5 µg/mL (≈ 1.37 µM)
  MIC: 0.25 to 2 µg/mL (≈ 0.683 to 5.47 µM)
[3]; [18]
  MIC90: 1 µg/mL (≈ 2.73 µM)
